Measurements: ChEMBL document CHEMBL1926642, “Relevance of the C-5 position to schweinfurthin induced cytotoxicity” (2011)

Legend:
Type in all cases: functional
[1] = system: SNB-75; experiment: Growth inhibition of human SNB75 cells after 48 hrs by sulforhodamine B assay; conditions: SNB-75, 48 h
[2] = system: MCF7; experiment: Growth inhibition of human MCF7 cells after 48 hrs by sulforhodamine B assay; conditions: MCF7, 48 h
[3] = system: SNB-19; experiment: Growth inhibition of human SNB19 cells after 48 hrs by sulforhodamine B assay; conditions: SNB-19, 48 h
[4] = system: NCI-H522; experiment: Growth inhibition of human NCI-H522 cells after 48 hrs by sulforhodamine B assay; conditions: NCI-H522, 48 h
[5] = system: A498; experiment: Growth inhibition of human A498 cells after 48 hrs by sulforhodamine B assay; conditions: A498, 48 h
[6] = system: HT-29; experiment: Growth inhibition of human HT-29 cells after 48 hrs by sulforhodamine B assay; conditions: HT-29, 48 h
[7] = system: MDA-MB-435; experiment: Growth inhibition of human MDA-MB-435 cells after 48 hrs by sulforhodamine B assay; conditions: MDA-MB-435, 48 h
[8] = system: COLO 205; experiment: Growth inhibition of human COLO205 cells after 48 hrs by sulforhodamine B assay; conditions: COLO 205, 48 h
[9] = system: SK-MEL-28; experiment: Growth inhibition of human SK-MEL-28 cells after 48 hrs by sulforhodamine B assay; conditions: SK-MEL-28, 48 h
[10] = system: SW-620; experiment: Growth inhibition of human SW620 cells after 48 hrs by sulforhodamine B assay; conditions: SW-620, 48 h
[11] = system: SF-268; experiment: Growth inhibition of human SF268 cells after 48 hrs by sulforhodamine B assay; conditions: SF-268, 48 h
[12] = system: M14; experiment: Growth inhibition of human M14 cells after 48 hrs by sulforhodamine B assay; conditions: M14, 48 h
[13] = system: ACHN; experiment: Growth inhibition of human ACHN cells after 48 hrs by sulforhodamine B assay
[14] = system: UACC-62; experiment: Growth inhibition of human UACC62 cells after 48 hrs by sulforhodamine B assay; conditions: UACC-62, 48 h
[15] = system: NCI/ADR-RES; experiment: Growth inhibition of human NCI/ADR-RES cells after 48 hrs by sulforhodamine B assay
[16] = system: BT-549; experiment: Growth inhibition of human BT549 cells after 48 hrs by sulforhodamine B assay; conditions: BT-549, 48 h
[17] = system: MDA-MB-468; experiment: Growth inhibition of human MDA-MB-468 cells after 48 hrs by sulforhodamine B assay; conditions: MDA-MB-468, 48 h
[18] = system: A549; experiment: Growth inhibition of human A549 cells after 48 hrs by sulforhodamine B assay; conditions: A549, 48 h
[19] = system: HOP-92; experiment: Growth inhibition of human HOP92 cells after 48 hrs by sulforhodamine B assay; conditions: HOP-92, 48 h
[20] = system: LOX IMVI; experiment: Growth inhibition of human LOXIMVI cells after 48 hrs by sulforhodamine B assay
[21] = system: RXF 393; experiment: Growth inhibition of human RXF393 cells after 48 hrs by sulforhodamine B assay; conditions: RXF 393, 48 h
[22] = system: 786-0; experiment: Growth inhibition of human 786-0 cells after 48 hrs by sulforhodamine B assay; conditions: 786-0, 48 h
[23] = system: Malme-3M; experiment: Growth inhibition of human MALME-3M cells after 48 hrs by sulforhodamine B assay
[24] = system: UACC-257; experiment: Growth inhibition of human UACC257 cells after 48 hrs by sulforhodamine B assay; conditions: UACC-257, 48 h
[25] = system: SF-539; experiment: Growth inhibition of human SF539 cells after 48 hrs by sulforhodamine B assay; conditions: SF-539, 48 h
[26] = system: PC-3; experiment: Growth inhibition of human PC3 cells after 48 hrs by sulforhodamine B assay; conditions: PC-3, 48 h
[27] = read-out: pLC50 (the source's name) (converted)

COc1cc(/C=C/c2ccc3c(c2)C[C@@H]2C(C)(C)[C@H](O)CC[C@@]2(C)O3)cc(O)c1C/C=C(\C)CCC=C(C)C was tested, and the GI50 [1] was 5.37 µM, the LC50 [1] was over 100 µM and the TGI ([1]; read-out: pTGI (converted)) was 42.7 µM. For the same compound, the GI50 [2] was 16.6 µM, the LC50 [2] was 79.4 µM and the TGI ([2]; read-out: pTGI (converted)) was 36.3 µM. It also gave a GI50 [3] of 15.5 µM, an LC50 [3] of 91.2 µM and a TGI ([3]; read-out: pTGI (converted)) of 37.2 µM. It also gave a GI50 [4] of 17.8 µM, an LC50 [4] of 66.1 µM and a TGI ([4]; read-out: pTGI (converted)) of 33.9 µM. It also gave a GI50 [5] of 46.8 µM, an LC50 [5] of over 100 µM and a TGI ([5]; read-out: pTGI (converted)) of over 100 µM. For the same compound, the GI50 [6] was 1.95 µM, the LC50 (concentration killing 50% of cells) [6] was 23.4 µM and the TGI ([6]; read-out: pTGI (converted)) was 5.01 µM. It also gave a GI50 [7] of 17.4 µM, an LC50 [7] of 81.3 µM and a TGI ([7]; read-out: pTGI (converted)) of 38 µM. For the same compound, the GI50 [8] was 3.63 µM, the LC50 [8] was 49 µM and the TGI ([8]; read-out: pTGI (converted)) was 11 µM. For the same compound, the GI50 [9] was 16.2 µM, the CC50 [9, 27] was 69.2 µM and the TGI ([9]; read-out: pTGI (converted)) was 33.1 µM. The GI50 [10] was 11.7 µM, the LC50 [10] was 53.7 µM and the TGI ([10]; read-out: pTGI (converted)) was 25.1 µM. It also gave a GI50 [11] of 14.8 µM, an LC50 [11] of 81.3 µM and a TGI ([11]; read-out: pTGI (converted)) of 34.7 µM. It also gave a GI50 [12] of 13.8 µM, an LC50 [12] of 56.2 µM and a TGI ([12]; read-out: pTGI (converted)) of 27.5 µM. The GI50 [13] was 20 µM, the LC50 [13] was over 100 µM and the TGI ([13]; read-out: pTGI (converted)) was 46.8 µM. For the same compound, the GI50 [14] was 12.9 µM, the LC50 (50% lethal concentration) [14] was 70.8 µM and the TGI ([14]; read-out: pTGI (converted)) was 30.2 µM. For the same compound, the GI50 [15] was 21.4 µM, the LC50 [15] was over 100 µM and the TGI ([15]; read-out: pTGI (converted)) was 51.3 µM. For the same compound, the GI50 [16] was 5.01 µM, the LC50 [16] was 49 µM and the TGI ([16]; read-out: pTGI (converted)) was 17.8 µM. It also gave a GI50 [17] of 11 µM, an LC50 [17] of 72.4 µM and a TGI ([17]; read-out: pTGI (converted)) of 28.2 µM. It also gave an LC50 [18] of over 100 µM, a GI50 ([18]; read-out: GI50) of 13.2 µM and a GI50 ([18]; read-out: pGI50 (converted)) of 13.2 µM. The TGI ([18]; read-out: pTGI (converted)) was 39.8 µM, the GI50 [19] was 17.8 µM and the LC50 [19] was over 100 µM. It also gave a TGI ([19]; read-out: pTGI (converted)) of 49 µM, a GI50 [20] of 3.31 µM and an LC50 [20] of 37.2 µM. For the same compound, the TGI ([20]; read-out: pTGI (converted)) was 11.5 µM, the GI50 [21] was 1.29 µM and the LC50 (50% lethal concentration) [21] was 6.61 µM. For the same compound, the TGI ([21]; read-out: pTGI (converted)) was 2.88 µM, the GI50 [22] was 2.95 µM and the CC50 [22, 27] was 42.7 µM. The TGI ([22]; read-out: pTGI (converted)) was 12 µM, the GI50 [23] was 17.8 µM and the LC50 [23] was 91.2 µM. The TGI ([23]; read-out: pTGI (converted)) was 40.7 µM, the GI50 [24] was 22.9 µM and the LC50 [24] was over 100 µM. The TGI ([24]; read-out: pTGI (converted)) was 55 µM, the GI50 [25] was 4.17 µM and the LC50 [25] was 57.5 µM. The TGI ([25]; read-out: pTGI (converted)) was 17.4 µM, the GI50 [26] was 8.51 µM and the CC50 [26, 27] was over 100 µM. For the same compound, the TGI ([26]; read-out: pTGI (converted)) was 56.2 µM.
